Laboratory results as given in patent publication US20070066682A1, “Arylalkylamine vanadium (V) salts for the treatment and/or prevention of Diabetes mellitus” (priority 2005, published 2007).
“Also recorded” adds a separate entry of the source.

How the values were obtained:
[1] = test system: protein kinase B; assay: Protein kinase B phosphorylation in isolated rat adipocytes; assay type: cell-based
Protocol: Isolated fat cells were disrupted for total membrane preparation by hypo-osmotic lysis in a 20 mM HES buffer and an antiprotease and antiphosphatase cocktail as reported by Abella et al. (2003, Diabetes 52: 1004-1013). Protein concentrations were determined by the Bradford method (Bradford, 1976, Anal. Biochem. 72: 248-254) with gamma-globulin as protein concentration standard. Immunoprecipitation and immunoblot assays were performed as previously described by Abella et al. (2004, Id.) with the use of a monoclonal antiphosphotyrosine antibody for the immunoprecipitation and an anti-insulin receptor antibody for immunoblotting, respectively. SDS-polyacrylamide gel electrophoresis was performed on membrane proteins following conventional procedures. Proteins were transferred to Immobilon and immunoblotting was performed as reported by Castello et al. (1994, J. Biol. Chem. 269: 5905-5912).
The mechanism of action of B6V10 was investigated in isolated rat adipocytes. Adipose cells from Wistar rats were incubated for different times in the presence of 25 μM hexaquis(benzylammonium) decavanadate (B6V10). Cells were also incubated in the presence of insulin (100 nM, 45 min), decavanadate (25 μM, 45 min) or semicarbazide (1 mM, 45 min). Subsequently, 2-deoxyglucose uptake (results shown in FIG. 7A), tyrosine phosphorylation of insulin receptor (FIG. 7B), phospho-Thr^308-protein kinase B (FIG. 7C) and phospho-Ser^473-protein kinase B (FIG. 7D) was measured. […] The phosphorylation of protein kinase B induced by B6V10 was parallel to activation of glucose transport (FIG. 7C and 7D).
(§1) The effects of incubation with semicarbazide or phosphatidylinositol 3-kinase inhibitors were also investigated. Adipose cells were incubated with B6V10 (25 μM, 45 min) in the absence or presence of wortmannin (2 μM, 45 min), LY294002 (10 μM, 45 min) or semicarbazide (1 mM, 45 min) and thereafter 2-deoxyglucose uptake was determined during 5 min.

[2] = test system: isolated mouse adipocytes; assay: Glucose transport (2-DG) in isolated mouse adipocytes; assay type: cell-based; conditions: 100 μM
Protocol: Adipose cells from FVB mice were incubated for 45 minutes in basal conditions (Basal) or in the presence of 100 nM insulin (Ins), and different concentrations of hexaquis(benzylammonium) decavanadate (B6V10) in the absence or in the presence of 1 mM semicarbazide (SCZ) and thereafter, 2-DG transport was measured over 5 min.

[3] = test system: isolated rat adipocytes; assay: Glucose transport (2-deoxyglucose uptake) in isolated rat adipocytes; assay type: cell-based; conditions: for stimulation of glucose transport in the presence of semicarbazide: 1 mM semicarbazide; for stimulation of glucose transport in the presence of semicarbazide / stimulation of glucose transport (2-DG uptake): dihydrate; for stimulation of glucose transport (2-DG uptake): 45 min incubation
Protocol: In order to determine whether salts formed by vanadate and benzylamine could produce an insulin mimetic effect, the effect of increasing concentrations of hexaquis(benzylammonium) decavanadate on glucose transport activity in isolated rat adipocytes was tested. […] In similar assays, the activity of hexaquis(benzylammonium) decavanadate, pentaquis(benzylammonium) decavanadate and tetraquis(benzylammonium) decavanadate on glucose transport activity in isolated rat adipocytes were analyzed.
To determine the possible insulin mimetic effect of certain vanadium arylalkylamines, the capacity of these compounds to enhance glucose transport in isolated rat adipocytes was tested. Adipose cells from Wistar rats were incubated for 45 minutes in basal conditions (Basal) or in the presence of 100 nM insulin (Ins), and different concentrations of. hexaquis(benzylammonium) decavanadate (B6V10) in the absence or in the presence of 1 mM semicarbazide (SCZ). Subsequently, 2-DG transport was measured over a 5 min. interval.
The effects of the three tested compounds (B6V10, B5V10 and B4V10) were compared. Adipose cells from Wistar rats were incubated for 45 minutes in basal conditions (Basal) or in the presence of 100 nM insulin (Ins), and different concentrations of. decavanadate (V10), hexaquis(benzylammonium) decavanadate (B6V10), pentaquis(benzylammonium) decavanadate (B5V10) or tetraquis(benzylammonium) decavanadate (B4V10) in the absence or in the presence of 1 mM semicarbazide (SCZ). 2-DG transport was measured over 5 min. intervals. […]
as §1

[4] = test system: streptozotocin-induced diabetic rat with undetectable circulating insulin; assay: Subcutaneous treatment of streptozotocin (100 mg/kg) diabetic rats with undetectable circulating insulin; assay type: in vivo
Protocol: Male Wistar rats weighting 180-220 g were purchased from Harlan (Interfauna Ibèrica S.A., Spain). Diabetes was induced by a single intraperitoneal injection of a freshly prepared solution of streptozotocin (in some studies the dose was 45 mg/kg body weight and in some others 100 mg/kg body weight dissolved in 50 mM citrate buffer, pH 4.5). Only diabetic animals with glycemia above 300 mg/dl were used. The animals were housed in animal quarters at 22° C., with a 12 h light/12 h dark cycle and were fed ad libitum. All procedures used were approved by the animal ethical committee of the University of Barcelona, Spain. Male mice C57 BL/Ks bearing the db/db mutation (Jackson Laboratories, Bar Harbor, Me.) were purchased from Harlan France (Gannat, France). C57BL/6J male mice were assigned for 16 weeks to very high-fat diet containing (in kcal): 72% from fat, 28% from proteins and <1% from carbohydrates (Burcelin et al., 2002, Am. J. Physiol. Endocrinol. Metab 282: E834-E842).
(§2) In glucose tolerance tests and in chronic treatments, circulating glucose concentrations were determined by a rapid glucose analyser (Accutrend® Sensor Comfort, Roche, Basel. Switzerland). Plasma insulin (IRI) concentration was determined by ELISA method using a kit obtained from Crystal Chem Inc. (Downers Grove, Ill.). Plasma triglycerides (Biosystems, Barcelona, Spain) and NEFAS (Wako Chemicals, Neuss, Germany) were determined with standard […] methods.
To this end, rats were made diabetic by the injection of a large dose of streptozotocin (100 mg/kg) that eliminates β-pancreatic insulin content. […] These streptozotocin-induced diabetic rats were subcutaneously treated with B6V10 (2.5 μmol/kg) (solid squares, FIG. 9A) delivered by osmotic minipumps or left untreated (solid circles, FIG. 9A). Sham-operated nondiabetic rats were also untreated (solid triangles, FIG. 9A).
The concentration of circulating glucose under these conditions was also assayed. After 28 days of treating diabetic rats with hexaquis(benzylammonium) decavanadate (2.5 μmol/kg) (wide striped bars, FIG. 9B), or with decavanadate (close striped bars, FIG. 9B) delivered by osmotic minipumps, plasma insulin and glucose were measured. Untreated diabetic (solid bars, FIG. 9B) or nondiabetic rats (open bars, FIG. 9B) were similarly assayed as controls.

[5] = test system: diabetic rats; assay: Plasma free fatty acids, triglycerides and cholesterol of diabetic rats; assay type: in vivo, rat
Protocol: as §2

[6] = isolated rat adipocytes, listed as hexaquis(benzylammonium) decavanadate
[7] = isolated rat adipocytes, FIG. 1

For “hexaquis(benzylammonium) decavanadate (V) dihydrate [Entry B6V10]”, the “protein kinase B phosphorylation” value ([1]; 25 μM, rat adipocytes) was “rapidly stimulated protein kinase B”, the “time at which protein kinase B phosphorylation was detectable” value ([1]; 25 μM, rat adipocytes) was at most 2.5 min and the “protein kinase B phosphorylation in the presence of semicarbazide” value ([1]; B6V10 25 μM, semicarbazide 1 mM, 45 min) was “blocked by semicarbazide”. For the same substance, the “stimulation of glucose transport (% increase)” value [2] was 93%, the “stimulation of glucose transport at 25 μM compared with the combination of benzylamine and vanadate” value ([3]; 25 μM vs 100 μM benzylamine and 100 μM vanadate, rat adipocytes) was “greater stimulation of glucose transport than the combination of 100 μM benzylamine and 100 μM vanadate” and the “stimulation of glucose transport in the presence of semicarbazide” value ([3]; isolated rat adipocytes) was “completely blocked by semicarbazide; also recorded: blocked in the presence of semicarbazide”. For the same substance, the “stimulation of glucose transport in the presence of semicarbazide” value [3, 6] was “completely blocked by semicarbazide; also recorded: this effect was inhibited”, the “stimulation of glucose transport (2-DG uptake)” value ([3]; isolated rat adipocytes) was “stimulated glucose transport in rat adipocytes in a concentration-dependent manner” and the “stimulation of glucose transport (2-DG uptake)” value [3, 6] was “pronounced stimulation on glucose transport”. For the same substance, the “concentration from which stimulation of glucose transport was perceptible” value [3, 7] was at least 0.5 µM, the “concentration of maximal effect on glucose transport” value [3, 7] was 2.5 µM and the EC50 ([3]; isolated rat adipocytes, FIG. 1, read-out: concentration of semi-maximal effect on glucose transport) was over 1 µM. For the same substance, the “maximum effect on glucose transport compared with benzylamine and vanadate in combination” value ([3]; isolated rat adipocytes, combination 100 μM sodium vanadate and 100 μM benzylamine (FIG. 1)) was “greater than that produced by the presence of benzylamine and vanadate in combination”, the “maximal effect on glucose transport as % of the maximal stimulation caused by insulin” value ([3]; rat adipocytes, 100 nM insulin) was 85% and the “glycemia in diabetic rats with undetectable insulin” value ([4]; 2.5 μmol/kg subcutaneous minipumps, STZ 100 mg/kg, dihydrate) was “markedly effective in lowering hyperglycemia; also recorded: reducing glycemia; also recorded: significant differences between the B6V10 and the untreated groups; also recorded: antidiabetic effects”. The “plasma glucose and insulin after 28 days of treatment” value ([4]; 2.5 μmol/kg, osmotic minipumps, STZ 100 mg/kg) was “plasma glucose was reduced even without any observable change in the amount of insulin”, the “body weight or organ weights” value ([4]; chronic treatment with therapeutic doses) was “did not affect body weight or organ weights” and the “plasma concentrations of free fatty acids, triglycerides and cholesterol” value [5] was “normalized the plasma concentrations of free fatty acids, triglycerides and cholesterol”.
